Measured values: US8415372B2, “Sulfonamide compound” (Asahi Kasei Pharma Corporation, priority 2007, dated 2013)

What follows are compounds tested on monkey intraocular pressure (assay: Intraocular pressure reduction enhancing action in monkey (Test Example 8)). Settings: cynomolgus monkey, 30 μL latanoprost (Xalatan) then 30 μL 19-1 compound aqueous solution, compared with single drug groups.
Assay type: in vivo
Experimental: As for the test compound used for combination use, similar effect can be obtained also with the compounds of the present invention represented with the example numbers mentioned in Test Example 3. The test is performed by using cynomolgus monkeys sufficiently naturalized for the operation of fixation on a monkey chair and intraocular pressure measurement.
As the test compound, the 19-1 compound was dissolved in physiological saline, and the solution is neutralized by addition of sodium hydroxide (pH 7.0 to 8.0) to prepare a 0.01 weight % aqueous solution (19-1 compound aqueous solution). As a drug for combination use, latanoprost (trade name: Xalatan, Pfizer) is used as the marketed formulation per se. The test aqueous solution or the drug for combination use is instilled to the left eye, and the right eye is not treated (control eye). […] After initial intraocular pressure values of the monkeys are measured for each group, 30 μL of physiological saline is instilled to the control group, single drug group 1, and single drug group 2, and latanoprost is instilled in the same volume to the combination use group. […] Then, the intraocular pressure is measured over time for each group.

SMILES	Intraocular pressure reducing action, combination use group
N[C@H]1CCN(S(=O)(=O)c2cccc3cncc(Cl)c23)C1 [Example 19-1, (S)-3-Amino-1-(4-chloro-5-isoquinolinesulfonyl)pyrrolidine]	exceeding those of both the single drug group 1 and single drug group 2

Same assay, conditions: cynomolgus monkey, 30 μL of 0.01 weight % aqueous solution, compared with control group

SMILES	Intraocular pressure reducing action, single drug group 1
N[C@H]1CCN(S(=O)(=O)c2cccc3cncc(Cl)c23)C1 [Example 19-1, (S)-3-Amino-1-(4-chloro-5-isoquinolinesulfonyl)pyrrolidine]	exceeding that of the control group

These compounds were tested on rabbit normal intraocular pressure (assay: Intraocular pressure reducing action (Test Example 3)). Settings: Oryctolagus cuniculus, topical; 3 mM aqueous solution, 50 μl to the left eye; max difference of left and right eyes at 2, 4 and 6 hours relative to value before administration; read-out: Intraocular pressure reducing degree.
Assay type: in vivo, Japanese white rabbit
Experimental: A Japanese white rabbit having a body weight of about 2 kg was placed in a positioner and naturalized for one week before the experiment. An ophthalmologic local anesthesant (Benoxil) was administered to both eyes, and then intraocular pressure was measured by using a tonometer (Classic 30, Solan). A 3 mM aqueous solution of a test compound was administered in a volume of 50 μl to the left eye, and the right eye was not treated (control eye). The intraocular pressure values were measured for the left and right eyes immediately before, and 2, 4 and 6 hours after the administration of the aqueous solution of the test compound, and the difference of the measured values for the left and right eyes was considered an intraocular pressure reduction value of the test medicament at each measurement time. The largest difference of the values for the left and right eyes among the measured values at the measurement times (after 2, 4 and 6 hours) was considered the maximum intraocular pressure reduction value (max ? IOP) of each test medicament. The intraocular pressure reducing degree representing the intraocular pressure reducing action of each test medicament was calculated according to the following formula. Since rabbits show significant daily variation of intraocular pressure, daily variation is added when change of intraocular pressure is measured over time, and the intraocular pressure reducing action may be overestimated. Therefore, we used this calculation method of intraocular pressure reduction value in order to minimize the influence of the variation. Intraocular pressure reducing degree(%)=(max ? IOP/Intraocular pressure value immediately before administration)×100

SMILES	inhibition in vivo at 3000 µM [%]
CN[C@H]1CCN(S(=O)(=O)c2cccc3cncc(Br)c23)C1 [Example 1-3, (S)-1-(4-Bromo-5-isoquinolinesulfonyl)-3-(methylamino)pyrrolidine]	≥ 20
COc1ccc(CN[C@H]2CCN(S(=O)(=O)c3cccc4cncc(Br)c34)C2)cc1 [Example 1-7]	5 to 10
Cc1nc(CNC2CCN(S(=O)(=O)c3cccc4cncc(Br)c34)C2)c[nH]1 (stereo not drawn) [Example 1-19]	5 to 10
Cn1cccc1CNC1CCN(S(=O)(=O)c2cccc3cncc(Br)c23)C1 (stereo not drawn) [Example 1-20]	10 to 20
NCCNC1CCN(S(=O)(=O)c2cccc3cncc(Br)c23)C1 (stereo not drawn) [Example 1-31]	10 to 20
CN[C@H]1CCN(S(=O)(=O)c2cccc3cncc(C)c23)C1 [Example 8-3]	≥ 20
Cc1cncc2cccc(S(=O)(=O)N3CCC(NC(C)C)C3)c12 (stereo not drawn) [Example 8-27]	10 to 20
Cc1cncc2cccc(S(=O)(=O)N3CCC(NC4CCC4)C3)c12 (stereo not drawn) [Example 8-28]	5 to 10
Cc1cncc2cccc(S(=O)(=O)N3CCC(NC4CCCC4)C3)c12 (stereo not drawn) [Example 8-29]	5 to 10
Cc1cncc2cccc(S(=O)(=O)N3CCC(NC4CCCCC4)C3)c12 (stereo not drawn) [Example 8-30]	5 to 10
Cc1cncc2cccc(S(=O)(=O)N3CCC(NC4CCOCC4)C3)c12 (stereo not drawn) [Example 8-31]	10 to 20
Cc1cncc2cccc(S(=O)(=O)N3CCC(NCCN)C3)c12 (stereo not drawn) [Example 8-32]	5 to 10
C=CCNC1CCN(S(=O)(=O)c2cccc3cncc(C)c23)C1 (stereo not drawn) [Example 8-34]	5 to 10
Cc1cncc2cccc(S(=O)(=O)N3CCC(NCCc4ccccc4)C3)c12 (stereo not drawn) [Example 8-37]	5 to 10
C#Cc1cncc2cccc(S(=O)(=O)N3CC[C@H](NCc4ccco4)C3)c12 [Example 10-14]	5 to 10
C#Cc1cncc2cccc(S(=O)(=O)N3CC[C@H](NC4CCOCC4)C3)c12 [Example 10-31]	≥ 20
CN[C@H]1CCN(S(=O)(=O)c2cccc3cncc(Cl)c23)C1 [Example 19-3, (S)-1-(4-Chloro-5-isoquinolinesulfonyl)-3-(methylamino)pyrrolidine]	≥ 20
CCN[C@H]1CCN(S(=O)(=O)c2cccc3cncc(Cl)c23)C1 [Example 19-4]	≥ 20
O=S(=O)(c1cccc2cncc(Cl)c12)N1CC[C@H](NCc2ccco2)C1 [Example 19-14]	5 to 10
O=S(=O)(c1cccc2cncc(Cl)c12)N1CC[C@H](NCc2cccs2)C1 [Example 19-17]	5 to 10
Cn1cccc1CN[C@H]1CCN(S(=O)(=O)c2cccc3cncc(Cl)c23)C1 [Example 19-21]	≥ 20
O=S(=O)(c1cccc2cncc(Cl)c12)N1CC[C@H](NC2CCOCC2)C1 [Example 19-31]	≥ 20
